In the NIST ThermoML archive (doi:10.1021/je900244c):
Where “and” joins values, the source holds several entries; their conditions need not be identical. Identical values can stand only once. Numbers after ± are expanded uncertainties.

Assay: xn = mol fraction of the nth substance listed
Details: Gas, Buoyancy - hydrostatic balance with magnetic suspension - two sinkers

CC(C)C [2-methylpropane] + CCC
mass density (303.15 K, 440.3 kPa, x2 = 0.503): 9.824 ± 0.035 kg/m3 | mass density (303.15 K, 440.7 kPa, x2 = 0.503): 9.834 ± 0.035 kg/m3 | mass density (303.15 K, 449.9 kPa, x2 = 0.503): 10.061 ± 0.036 kg/m3 | mass density (303.15 K, 450 kPa, x2 = 0.503): 10.069 ± 0.036 kg/m3 | mass density (303.15 K, 460 kPa, x2 = 0.503): 10.317 ± 0.036 kg/m3 | mass density (303.15 K, 460.4 kPa, x2 = 0.503): 10.325 ± 0.036 kg/m3 | mass density (303.15 K, 470.2 kPa, x2 = 0.503): 10.57 ± 0.037 kg/m3 | mass density (303.15 K, 470.5 kPa, x2 = 0.503): 10.581 ± 0.037 kg/m3 | mass density (303.15 K, 480 kPa, x2 = 0.503): 10.823 ± 0.037 kg/m3 | mass density (303.15 K, 480.3 kPa, x2 = 0.503): 10.83 ± 0.037 kg/m3 | mass density (303.15 K, 489.7 kPa, x2 = 0.503): 11.072 ± 0.037 kg/m3 | mass density (303.15 K, 490.4 kPa, x2 = 0.503): 11.087 ± 0.037 kg/m3 | mass density (303.15 K, 500.3 kPa, x2 = 0.503): 11.344 ± 0.038 kg/m3 | mass density (303.15 K, 500.4 kPa, x2 = 0.503): 11.344 ± 0.037 kg/m3 | mass density (303.15 K, 510.3 kPa, x2 = 0.503): 11.608 ± 0.038 kg/m3 | mass density (303.15 K, 510.5 kPa, x2 = 0.503): 11.6 ± 0.037 kg/m3 | mass density (303.15 K, 520.4 kPa, x2 = 0.503): 11.861 ± 0.038 kg/m3 and 11.864 ± 0.038 kg/m3 | mass density (303.15 K, 530.4 kPa, x2 = 0.503): 12.121 ± 0.038 kg/m3 | mass density (303.15 K, 530.7 kPa, x2 = 0.503): 12.129 ± 0.038 kg/m3 | mass density (303.15 K, 540.1 kPa, x2 = 0.503): 12.37 ± 0.038 kg/m3 | mass density (303.15 K, 540.2 kPa, x2 = 0.503): 12.378 ± 0.038 kg/m3 | mass density (303.15 K, 550.1 kPa, x2 = 0.503): 12.642 ± 0.038 kg/m3 | mass density (303.15 K, 550.3 kPa, x2 = 0.503): 12.642 ± 0.038 kg/m3 | mass density (303.15 K, 560.3 kPa, x2 = 0.503): 12.914 ± 0.038 kg/m3 | mass density (303.15 K, 564.6 kPa, x2 = 0.503): 13.019 ± 0.039 kg/m3 | mass density (303.15 K, 570.1 kPa, x2 = 0.503): 13.17 ± 0.039 kg/m3 | mass density (303.15 K, 570.4 kPa, x2 = 0.503): 13.178 ± 0.039 kg/m3 | mass density (303.15 K, 575.1 kPa, x2 = 0.503): 13.306 ± 0.039 kg/m3 | mass density (303.15 K, 580.1 kPa, x2 = 0.503): 13.434 ± 0.039 kg/m3 | mass density (303.15 K, 580.7 kPa, x2 = 0.503): 13.453 ± 0.039 kg/m3 | mass density (303.15 K, 584.3 kPa, x2 = 0.503): 13.548 ± 0.039 kg/m3 | mass density (303.15 K, 599.9 kPa, x2 = 0.799): 12.55 ± 0.039 kg/m3 | mass density (303.15 K, 600.1 kPa, x2 = 0.799): 12.557 ± 0.039 kg/m3 | mass density (303.15 K, 609.7 kPa, x2 = 0.799): 12.784 ± 0.039 kg/m3 | mass density (303.15 K, 610.2 kPa, x2 = 0.799): 12.802 ± 0.039 kg/m3 | mass density (303.15 K, 620.2 kPa, x2 = 0.799): 13.04 ± 0.021 kg/m3 | mass density (303.15 K, 630.2 kPa, x2 = 0.799): 13.289 ± 0.04 kg/m3 | mass density (303.15 K, 639.7 kPa, x2 = 0.799): 13.516 ± 0.04 kg/m3 | mass density (303.15 K, 649.7 kPa, x2 = 0.799): 13.757 ± 0.04 kg/m3 | mass density (303.15 K, 659.8 kPa, x2 = 0.799): 14.006 ± 0.04 kg/m3 | mass density (303.15 K, 680.1 kPa, x2 = 0.799): 14.516 ± 0.041 kg/m3 | mass density (303.15 K, 700 kPa, x2 = 0.799): 15.01 ± 0.041 kg/m3 | mass density (303.15 K, 720 kPa, x2 = 0.799): 15.515 ± 0.041 kg/m3 | mass density (303.15 K, 739.9 kPa, x2 = 0.799): 16.028 ± 0.041 kg/m3 | mass density (303.15 K, 760.5 kPa, x2 = 0.799): 16.557 ± 0.041 kg/m3 | mass density (303.15 K, 770.4 kPa, x2 = 0.799): 16.821 ± 0.041 kg/m3 | mass density (303.15 K, 779.5 kPa, x2 = 0.799): 17.055 ± 0.041 kg/m3 | mass density (303.15 K, 780.1 kPa, x2 = 0.799): 17.073 ± 0.024 kg/m3 | mass density (303.15 K, 789.8 kPa, x2 = 0.799): 17.319 ± 0.041 kg/m3 | mass density (303.15 K, 790.1 kPa, x2 = 0.799): 17.342 ± 0.041 kg/m3 | mass density (303.15 K, 799.6 kPa, x2 = 0.799): 17.59 ± 0.041 kg/m3 | mass density (323.15 K, 590.1 kPa, x2 = 0.244): 13.582 ± 0.042 kg/m3 | mass density (323.15 K, 600.1 kPa, x2 = 0.244): 13.847 ± 0.043 kg/m3 | mass density (323.15 K, 600.6 kPa, x2 = 0.249): 13.833 ± 0.042 kg/m3 | mass density (323.15 K, 600.7 kPa, x2 = 0.249): 13.848 ± 0.042 kg/m3 | mass density (323.15 K, 609.5 kPa, x2 = 0.244): 14.1 ± 0.043 kg/m3 | mass density (323.15 K, 610.4 kPa, x2 = 0.249): 14.09 ± 0.042 kg/m3 | mass density (323.15 K, 620.1 kPa, x2 = 0.249): 14.354 ± 0.044 kg/m3 | mass density (323.15 K, 620.5 kPa, x2 = 0.244): 14.391 ± 0.043 kg/m3 | mass density (323.15 K, 620.7 kPa, x2 = 0.249): 14.369 ± 0.044 kg/m3 | mass density (323.15 K, 629.7 kPa, x2 = 0.244): 14.643 ± 0.044 kg/m3 | mass density (323.15 K, 630.3 kPa, x2 = 0.249): 14.633 ± 0.043 kg/m3 | mass density (323.15 K, 630.5 kPa, x2 = 0.244): 14.658 ± 0.043 kg/m3 | mass density (323.15 K, 630.5 kPa, x2 = 0.249): 14.64 ± 0.043 kg/m3 | mass density (323.15 K, 640.1 kPa, x2 = 0.249): 14.889 ± 0.044 kg/m3 | mass density (323.15 K, 640.7 kPa, x2 = 0.244): 14.937 ± 0.044 kg/m3 | mass density (323.15 K, 640.9 kPa, x2 = 0.249): 14.923 ± 0.044 kg/m3 | mass density (323.15 K, 650.1 kPa, x2 = 0.249): 15.168 ± 0.044 kg/m3 | mass density (323.15 K, 650.3 kPa, x2 = 0.244): 15.201 ± 0.044 kg/m3 | mass density (323.15 K, 651.3 kPa, x2 = 0.244): 15.223 ± 0.044 kg/m3 | mass density (323.15 K, 660 kPa, x2 = 0.249): 15.436 ± 0.044 kg/m3 | mass density (323.15 K, 660.1 kPa, x2 = 0.249): 15.447 ± 0.045 kg/m3
